According to publication PMC6212833 (mBio, 2018):
Counter-ions that a name gives are not always drawn.

Experiments:
[1] = tested on: B. mandrillaris trophozoites; assay: Nitroxoline structure-activity relationship dose response (CellTiter Glo); assay type: cell-based, Balamuthia mandrillaris; conditions: 72 h, 8-point dose response in triplicate; read-out: IC50
[2] = tested on: B. mandrillaris trophozoites; assay: microbe, parasite or virus in culture; assay type: cell-based, Balamuthia mandrillaris; conditions: for inhibition at 20 µM: Balamuthia mandrillaris; for % Inhibition: 20 µM
[3] = tested on: H4 human neuroglioma cells; assay: Secondary screening dose response, toxicity to H4 cells; assay type: cell-based; conditions: Homo sapiens; 72 h; approximated from dose-response curves
[4] = tested on: B. mandrillaris trophozoites; assay: Secondary screening dose response, B. mandrillaris trophozoites; assay type: cell-based, Balamuthia mandrillaris; conditions: Balamuthia mandrillaris, 72 h, read-out: B. mandrillaris IC50
Method: (§2) Secondary screening of hit compounds consisted of dose-response experiments to measure the toxicity of each compound to B. mandrillaris trophozoites, HFF-1 human fibroblast cells, and H4 human neuroglioma cells. Four 384-well plates were prepared prior to addition of drug as follows: one opaque plate (Corning) seeded with 3,000 HFF-1 cells per well in 60 µl complete media, one opaque plate seeded with 2,000 H4 cells per well in 60 µl complete media, one opaque plate containing 30 µl axenic media, and one clear plate (Corning) containing 30 µl axenic media. Opaque plates were used to measure the viability of trophozoites in the CTG assay, and clear plates were used for microscopic examination of cyst formation. HFF-1 and H4 plates were seeded 24 h prior to drug addition. The selected primary screen hits were added from 10 mM DMSO stocks into wells of all four test plates to reach final concentrations ranging from 0.06 µM to 30 µM (10 concentrations, 2-fold serial dilution). Negative-control wells received concentrations of DMSO corresponding to the amount of DMSO in each tested drug well (reaching a maximum of 0.3% DMSO). B. mandrillaris trophozoites were resuspended in axenic media and added to the plates containing drug dilutions in axenic media at a density of 3,000 amoebae per well in a final volume of 60 µl media. All plates were incubated for 72 h. Throughout the incubation period, the clear-bottom B. mandrillaris plate was monitored for large-scale changes to population encystment in response to drug treatment. After the 72-h incubation, 30 µl of CTG reagent was added to all wells of the opaque assay plates and luminescence was measured with a Promega GloMax-Multi+ plate reader at 2, 4, and 8 h after CTG addition.

[5] = tested on: HFF-1 human fibroblast cells; assay: Secondary screening dose response, toxicity to HFF-1 cells; assay type: cell-based; conditions: Homo sapiens, HFF-1; 72 h; approximated from dose-response curves; read-out: HFF1 IC50
Method: as §2

[6] = Cytotoxicity dose response, HFF-1; assay type: cell-based; conditions: human, HFF-1 (fibroblast) cells, unit not given in Table S3, drug concentrations in µM, read-out: CC50 HFF-1 cell line
Method: (§1) B. mandrillaris trophozoites were seeded at 4,000 amoebae per well into opaque and clear-bottom 96-well plates (Corning). Homogenous populations of B. mandrillaris cysts generated by galactose induction were seeded at 4,000 amoebae per well into opaque 96-well plates. HFF-1 (fibroblast), H4 (glial), U87 (glial), HEK-293T (kidney), and Hep-G2 (liver) cells were seeded at 3,000 cells per well in opaque 96-well plates 24 h prior to addition of drug. Stocks of nitroxoline (Selleck Chemicals) were dissolved in 100% DMSO at 10 mM. Stocks of azithromycin (Selleck Chemicals), pentamidine isethionate (Selleck Chemicals), and miltefosine (Selleck Chemicals) were dissolved in water at 10 mM. Drug stocks were serially diluted in water to generate 12-point dilution series, which were then used to treat assay wells containing B. mandrillaris or human cells at final concentrations ranging from 0.39 µM to 400 µM in 100-µl total well volumes. Control wells were treated with vehicle (DMSO or water) at concentrations corresponding to the final vehicle concentrations in each drug dilution series. After incubation for 72 h, 50 µl of CTG was added to all assay wells. Luminescence was measured with a Promega GloMax-Multi+ plate reader 2, 4, and […] after CTG addition. All dose-response experiments were performed with at least three independent biological replicates. IC50 values were determined as previously described. To quantify encystment under treated and untreated conditions, amoebae in individual assay wells were resuspended thoroughly and the number of cysts and number of trophozoites in 10-µl samples were counted by the use of a hemocytometer (SKC, Inc.). Cysts and trophozoites are morphologically distinct, making them simple to distinguish with bright-field microscopy (example images are shown in Fig. S1 in the supplemental material). Encystment assays were performed with three independent biological replicates.

[7] = Cytotoxicity dose response, HEK-293T; assay type: cell-based; conditions: human, HEK-293T (kidney) cells, unit not given in Table S3, drug concentrations in µM, read-out: CC50 HEK-293T cell line
Method: as §1

[8] = Cytotoxicity dose response, Hep-G2; assay type: cell-based; conditions: human, Hep-G2 (liver) cells, unit not given in Table S3, drug concentrations in µM, read-out: CC50 Hep-G2 cell line
Method: as §1

[9] = tested on: B. mandrillaris trophozoites; assay: Side-by-side dose response, trophozoite viability; assay type: cell-based, Balamuthia mandrillaris; conditions: Balamuthia mandrillaris, 72 h, read-out: IC50, B. mandrillaris trophozoites, 72 h
Method: as §1

[10] = Cytotoxicity dose response, U87; assay type: cell-based; conditions: human, U87 (glial) cells, unit not given in Table S3, drug concentrations in µM, read-out: CC50 U87 cell line
Method: as §1

[11] = Cytotoxicity dose response, H4; assay type: cell-based; conditions: human, H4 (glial) cells, unit not given in Table S3, drug concentrations in µM, read-out: CC50 H4 cell line
Method: as §1

B. mandrillaris [12] = tested on: B. mandrillaris; parameters: method as in PMID 15347743, PMID 23869955, PMID 16579814; conditions: in vitro; cited from earlier work
[13] = Cytotoxicity, mean of all cell lines; assay type: cell-based; conditions: human, U87, H4, HEK-293T, HFF-1 and Hep-G2 cell lines (mean of all), unit inferred
Method: as §1

B. mandrillaris cysts = assay: Dose response, viability of preformed galactose-induced cysts; assay type: cell-based, Balamuthia mandrillaris; conditions: Balamuthia mandrillaris, 72 h, preformed cysts, 12% galactose induction medium, read-out: IC50, B. mandrillaris cysts
Method: Following the findings of a previous study, encystment of B. mandrillaris was induced by galactose exposure ([74]). B. mandrillaris trophozoites were grown to log phase in axenic media, and galactose was added to reach a final concentration of 12% (vol/vol). Amoebae were cultured in the induction medium until trophozoites were no longer observed (approximately 10 days). Galactose-induced cysts transition back to trophozoites after approximately 3 days of incubation in galactose-free axenic medium. Therefore, all assays with cysts were completed in the induction medium. […] All incubation steps for B. mandrillaris growth were carried out at 37°C with 5% CO2.
as §1

B. mandrillaris [14] = assay: Encystment assay, counts of cysts and trophozoites; assay type: cell-based, Balamuthia mandrillaris; conditions: 72 h of treatment with different drug concentrations
Method: as §1

6-Nitroquinolone [compound 15]
IC50 [1]: 189 µM

C[n+]1c2cc(N)ccc2cc2ccc(N)cc21 [Acriflavinium Hydrochloride]
inhibition at 20 µM ([2]; 72 h): 33%

CCCCC(CC)CNC(=N)NC(=N)NCCCCCCNC(=N)NC(=N)NCC(CC)CCCC (centres unmarked) [Alexidine Hydrochloride]
inhibition at 20 µM ([2]; 72 h): 79%

CC(C)c1c(C(=O)Nc2ccccc2)c(-c2ccccc2)c(-c2ccc(F)cc2)n1CC[C@@H](O)C[C@@H](O)CC(=O)O [Atorvastatin]
IC50 [3]: > 30 µM
IC50 [4]: > 30 µM
IC50 [5]: > 30 µM
inhibition at 20 µM ([2]; 72 h): 40%

CC[C@H]1OC(=O)[C@H](C)[C@@H](O[C@H]2C[C@@](C)(OC)[C@@H](O)[C@H](C)O2)[C@H](C)[C@@H](O[C@@H]2O[C@H](C)C[C@H](N(C)C)[C@H]2O)[C@](C)(O)C[C@@H](C)CN(C)[C@H](C)[C@@H](O)[C@]1(C)O [Azithromycin]
CC50 at 72 h [6]: 116 µM
CC50 at 72 h [7]: 120 µM
CC50 at 72 h [8]: 86.4 µM
IC50 [9]: 244 µM
CC50 at 72 h [10]: 55 µM
CC50 at 72 h [11]: 95 µM
inhibition of amoebic growth (B. mandrillaris [12]): amoebicidal or amoebistatic activity
CC50 at 72 h [13]: 94.4 µM
IC50 (B. mandrillaris cysts): 788 µM
encystment response (B. mandrillaris [14]): no substantial number of cysts was observed at any concentration

CO/N=C(\C(=O)N[C@@H]1C(=O)N2C(C(=O)O)=C(COC(N)=O)CS[C@H]12)c1ccco1 [Cefuroxime Sodium]
inhibition at 20 µM ([2]; 72 h): 41%

COCc1c(C(C)C)nc(C(C)C)c(/C=C/[C@@H](O)C[C@@H](O)CC(=O)O)c1-c1ccc(F)cc1 [Cerivastatin, Cerivastatin Na, Cerivastatin]
IC50 [3]: 0.2 µM
IC50 [4]: 9 µM
IC50 [5]: < 0.06 µM
inhibition at 20 µM ([2]; 72 h): 66%

CCCCCCCCCCCCCCCC[N+](C)(C)C [Cetrimonium]
inhibition at 20 µM ([2]; 72 h): 56%

[H]/N=C(\N/C(=N/[H])NCCCCCCNC(=N)NC(=N)Nc1ccc(Cl)cc1)Nc1ccc(Cl)cc1 [Chlorhexidine]
inhibition at 20 µM ([2]; 72 h): 64%

Cc1cc(N)c2ccccc2[n+]1CCCCCCCCCC[n+]1c(C)cc(N)c2ccccc21 [Dequadin]
inhibition at 20 µM ([2]; 72 h): 69%

Oc1ccc(Cl)cc1Cc1cc(Cl)ccc1O [Dichlorophene, Dichlorophen, Dichlorophene]
inhibition at 20 µM ([2]; 72 h): 42%

N=C(N)c1ccc(/N=N/Nc2ccc(C(=N)N)cc2)cc1 [Diminazene]
inhibition at 20 µM ([2]; 72 h): 46%

O=C(O)c1ccccc1-c1c2cc(I)c(=O)c(I)c-2oc2c(I)c(O)c(I)cc12 [Erythrosine Sodium]
inhibition at 20 µM ([2]; 72 h): 66%

C[CH2][Hg][S]c1ccccc1C(=O)O [Ethylmercurithiosalicylic acid]
% Inhibition ([2]; 72 h, relative to positive and negative controls): 107%

Cc1cc(-c2ccc(/N=N/c3ccc4c(S(=O)(=O)O)cc(S(=O)(=O)O)c(N)c4c3O)c(C)c2)ccc1/N=N/c1ccc2c(S(=O)(=O)O)cc(S(=O)(=O)O)c(N)c2c1O [Evans Blue]
inhibition at 20 µM ([2]; 72 h): 74%

C=C1C[C@@H]2[C@H](CC[C@]3(C)C(=O)CC[C@@H]23)[C@@]2(C)C=CC(=O)C=C12 [Exemestane]
IC50 [3]: > 30 µM
IC50 [4]: > 30 µM
IC50 [5]: > 30 µM
inhibition at 20 µM ([2]; 72 h): 47%

CN(C)c1ccc(C(=C2C=CC(=[N+](C)C)C=C2)c2ccc(N(C)C)cc2)cc1 [Gentian Violet]
inhibition at 20 µM ([2]; 72 h): 62%

CC[n+]1c(-c2ccccc2)c2cc(N)ccc2c2ccc(N)cc21 [Homidium Bromide]
inhibition at 20 µM ([2]; 72 h): 44%

NC(=O)NO [Hydroxyurea]
% Inhibition [2]: 44%

CN(C)CCCN1c2ccccc2CCc2ccccc21 [Imipramine]
IC50 [3]: > 30 µM
IC50 [4]: > 30 µM
IC50 [5]: > 30 µM
inhibition at 20 µM ([2]; 72 h): 42%
